Test results reported in patent US7691907B2, “Methods and composition based on discovery of metabolism of nitroglycerin” (priority 2002, dated 2010).
“Also recorded” adds a separate entry of the source. Read-outs that look alike come from different tables or passages of the source.

Columns and labels:
[1] = molecular target: T1, mtALDH isolated from mouse macrophage RAW 264.7 (Mus musculus, UniProt P47738); format: biochemical
T1 construct: Mouse macrophage RAW 264.7 cells were homogenized in a 30 mM phosphate buffer; endogenous in cells; host or cells: mouse macrophage RAW 264.7 cells (endogenous enzyme purified over DEAE-cellulose, Q-sepharose, Butyl-Sepharose and hydroxyapatite)
T1 sequence (P47738 20-519): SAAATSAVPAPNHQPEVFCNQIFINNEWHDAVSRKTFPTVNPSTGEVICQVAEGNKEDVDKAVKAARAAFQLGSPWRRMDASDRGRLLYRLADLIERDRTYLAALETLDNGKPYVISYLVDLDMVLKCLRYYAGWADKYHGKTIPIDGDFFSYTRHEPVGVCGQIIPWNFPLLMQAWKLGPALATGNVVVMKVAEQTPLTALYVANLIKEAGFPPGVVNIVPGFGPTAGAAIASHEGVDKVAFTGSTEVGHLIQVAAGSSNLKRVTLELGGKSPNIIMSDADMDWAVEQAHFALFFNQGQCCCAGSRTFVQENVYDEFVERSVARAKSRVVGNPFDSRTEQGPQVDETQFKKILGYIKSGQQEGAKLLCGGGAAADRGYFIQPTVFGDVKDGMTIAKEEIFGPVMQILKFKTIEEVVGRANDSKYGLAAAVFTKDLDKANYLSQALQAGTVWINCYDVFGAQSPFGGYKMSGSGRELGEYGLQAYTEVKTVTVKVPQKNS

patient = details: human, in vivo
[2] = molecular target: T2, mouse mitochondria aldehyde dehydrogenase (mtALDH) purified from RAW264.7 cells (Mus musculus, UniProt P47738); experiment: GTN reductase activity of purified enzyme (1,2-GDN formation from [14C]GTN, TLC-LSS); format: biochemical; details: for restoration of catalytic activity lost upon removal of DTT by dialysis: purified enzyme after dialysis
T2 construct: Mouse macrophage RAW 264.7 cells were homogenized in a 30 mM phosphate buffer; endogenous in cells; host or cells: mouse macrophage RAW 264.7 cells (endogenous enzyme purified over DEAE-cellulose, Q-sepharose, Butyl-Sepharose and hydroxyapatite)
T2 sequence (P47738 20-519): T1 sequence (P47738 20-519)

[3] = test system: mitochondria isolated from RAW 264.7 cells; experiment: 1,2-GDN generation from GTN by mitochondria isolated from RAW 264.7 cells; format: biochemical, mouse
Protocol: During protein purification, the assay mixtures (1 ml samples) contained 100 mM KPi, pH7.5, 0.5 mM EDTA, 1 mM NADH, 1 mM NADPH, 0.1 or 1 μM [^14C]GTN and protein sample from column fractions. After incubation at 37° C. for 10 to 30 minutes, the reaction was stopped (by adding dry ice) and GTN and its metabolites were extracted by 3×4 ml ether, the ether phase was combined and the solvent was evaporated by a stream of nitrogen. The final volume was controlled to less than 100 μl in ethanol for subsequent thin layer chromatography (TLC) separation and liquid scintillation spectrometry counting, i.e., (TLC-LSS), to determine amount of [^14C]1,2-GDN, to select samples with enzymatic activity (i.e., 1,2-GDN producing activity).
At the end of the procedure, the protein had been purified to near homogeneity (90 fold), with a 14.4% overall yield; its estimated molecular weight on SDS gel is about 53 kDa. N-terminal sequence of 30 amino acid residues was obtained by Edman degradation and matched exactly with mouse mitochondria aldehyde dehydrogenase.

[4] = test system: rabbit thoracic aorta rings; experiment: tissue or blood; format: cell-based, New Zealand white rabbits; details: for EC50: Oryctolagus cuniculus, read-out: EC50 for GTN relaxation
[5] = test system: organic nitrate ester reductase activity (mtALDH) in aorta rings; experiment: 1,2-GDN formation from GTN in aorta rings; format: cell-based, New Zealand white rabbits; details: for activity at 1000 µM: Oryctolagus cuniculus, read-out: 1,2-GDN generation in the aorta rings, % of control activity
[6] = test system: cGMP accumulation in the aortic rings; experiment: cGMP accumulation in aortic rings; format: cell-based, New Zealand white rabbits; details: for effect on increase in cGMP produced by GTN: 1 μM for 1 minute
mtALDH = molecular target: T3, mtALDH (Oryctolagus cuniculus, UniProt G1SUY2); experiment: mtALDH activity in partially purified preparations of GTN tolerant aortic rings; format: biochemical, rabbit
T3 construct: from tissue; host or cells: thoracic aorta rings of New Zealand white rabbits, made GTN tolerant; partially purified preparation
T3 sequence (G1SUY2 1-521): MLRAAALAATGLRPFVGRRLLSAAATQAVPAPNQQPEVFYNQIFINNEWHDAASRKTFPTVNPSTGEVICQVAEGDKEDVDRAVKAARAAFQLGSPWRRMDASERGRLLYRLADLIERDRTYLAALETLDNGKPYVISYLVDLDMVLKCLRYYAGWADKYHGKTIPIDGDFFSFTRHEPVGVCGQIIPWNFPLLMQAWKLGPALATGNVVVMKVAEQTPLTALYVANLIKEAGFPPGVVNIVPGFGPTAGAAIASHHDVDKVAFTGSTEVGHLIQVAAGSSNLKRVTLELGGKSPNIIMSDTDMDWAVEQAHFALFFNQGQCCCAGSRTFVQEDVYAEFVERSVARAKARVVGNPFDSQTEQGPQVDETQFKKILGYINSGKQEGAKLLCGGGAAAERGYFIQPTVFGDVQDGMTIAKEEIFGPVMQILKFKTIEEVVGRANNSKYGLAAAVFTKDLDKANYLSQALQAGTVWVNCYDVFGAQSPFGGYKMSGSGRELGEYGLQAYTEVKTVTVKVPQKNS

[7] = cited from earlier work
[8] = test system: anesthetized rabbits (arterial blood pressure); experiment: Systemic hypotensive effects of GTN infusion in anesthetized rabbits; format: in vivo, New Zealand white rabbits; details: for effect on SNP or adenosine mediated hypotension: inhibitor (~5 mM) infused intravenously 20 minutes prior; for effect on hypotensive effects of GTN: inhibitor (~5 mM) infused intravenously 20 minutes prior to GTN
[9] = 1 mM, 20 minutes before 1 μM GTN, 5 minutes 37° C.

O=C(O)CCCC[C@@H](S)CCS (racemic) [DHLA, dihydrolipoic acid]
activation of mtALDH to cause conversion of GTN to 1,2-GDN (FIG. 1) [1]: best activators | clinical outcome (patient; iv, 50 mg/kg): reverses tolerance and maintains mtALDH activity

O[C@H](CS)[C@H](O)CS (racemic) [DTT, dithiothreitol]
dependence of 1,2-GDN formation by purified enzyme on added dithiol ([2]; purified enzyme): could only catalyze 1,2-GDN formation when dithiol | restoration of catalytic activity lost upon removal of DTT by dialysis [2]: fully restored | activation of mtALDH to cause conversion of GTN to 1,2-GDN (FIG. 1) [1]: best activators

O=C(O)CCCC[C@@H]1CCSS1 (racemic) [lipoic acid]
dependence of 1,2-GDN formation by purified enzyme on added dithiol ([2]; purified enzyme): could only catalyze 1,2-GDN formation when dithiol

O=NOC(CO)CO [2 glycerol mononitrite, 2-glycerol mononitrite]
angiography the following year (patient): no progression of atherosclerosis | clinical outcome (patient): relief of symptoms

O=[N+]([O-])OCC(CO[N+](=O)[O-])O[N+](=O)[O-] [GTN, glyceryl trinitrate]
1,3-GDN formation from GTN ([2]; purified enzyme): below detection limits | rates of 1,2-GDN formation versus GTN concentration ([2]; purified enzyme, GTN 0.1 to 10 μM): linear | product ratio of 1,2-GDN/NOx (nitrite plus nitrate) ([2]; purified enzyme, n=3): 0.73±0.05 | product ratio of 1,2-GDN/nitrite ([2]; purified enzyme, n=3): 0.83±0.14 | 1,2-GDN generation from GTN ([3]; mitochondria isolated from RAW 264.7 cells, 1 mM NADH/NADPH): 0.29 nmol/h/mg | 1,2-GDN generation from GTN, residual activity ([3]; mitochondria-free supernatant): no residual activity | EC50 ([4]; 0.5 h): 3760 ± 2050 nM | EC50 [4]: 22.6 ± 9.2 nM | decrease of reductase activity as measured by 1,2-GDN formation ([5]; GTN-tolerant rings compared to control): 60.4% | cGMP accumulation from GTN treatment ([6]; GTN tolerant rings): abolished | activity of mtALDH (mtALDH): inhibited | blood pressure after drop (patient): 100 mm Hg | solubility in glycerol [7]: sparingly soluble

O=[N+]([O-])O[C@@H]1CO[C@H]2[C@@H]1OC[C@@H]2O [Imdur]
cross-tolerance with nitroglycerin (patient): no cross-tolerance

N[C@@H](CCC(=O)N[C@@H](CSN=O)C(=O)NCC(=O)O)C(=O)O [S-nitrosoglutathione]
clinical outcome (patient): improvement of dyspnea and relief of angina; also recorded: relief of symptoms

O=C(O)CCP(CCC(=O)O)CCC(=O)O [TCEP, tris(2-carboxyethylphosphine)]
activation of mtALDH to cause conversion of GTN to 1,2-GDN (FIG. 1) ([1]; 1 mM GTN, excess mtALDH, 37° C. 10-30 minutes, DTT 1 mM, DHLA 0.5 and 0.1 mM, TCEP 1 mM): best activators | clinical outcome (patient): tolerance is reversed and angina resolves

NCCCNCCSP(=O)(O)O [amifostine]
clinical outcome (patient): resolution rectal pain | improvement in FEV 1 (patient): 12%

CCCCCO[N+](=O)[O-] [amyl nitrate]
clinical outcome (patient): improvement in dyspnea and symptoms of fatigue

CCN(CC)C(=S)SSC(=S)N(CC)CC [antibuse]
clinical outcome (patient; po): without headache or symptomatic hypotension

OC(O)C(Cl)(Cl)Cl [chloral hydrate]
increase of GTN EC50 by inhibitor/competitive substrate [4]: 8.9 fold | activity at 1000 µM [5, 9]: 27.6% | effect on increase in cGMP produced by GTN [6]: completely blocked | effect on SNP or adenosine mediated hypotension [8]: little or no effect | effect on hypotensive effects of GTN [8]: significantly attenuated | clinical outcome (patient): resolution of symptoms; also recorded: without a decline in blood pressure; also recorded: without a fall in blood pressure; also recorded: improvement in wheezing and shortness of breath | clinical outcome (patient; iv): left ventricular function is largely preserved | clinical outcome (patient; po): blood pressure is restored | systolic blood pressure after rise (patient; po): 160 mm Hg

N#CN [cyanamide]
increase of GTN EC50 by inhibitor/competitive substrate [4]: 4.9 fold | activity at 1000 µM [5, 9]: 56.9% | reduction of the cGMP increase produced by GTN ([6]; 100 μM-10 nM): 46% | effect on SNP or adenosine mediated hypotension [8]: little or no effect | effect on hypotensive effects of GTN [8]: significantly attenuated

CCON=O [ethyl nitrite]
clinical outcome (patient; iv): Anginal symptoms resolve | systolic blood pressure after fall (patient; iv): 120 mm Hg

Cc1cnc(C(=O)NCCc2ccc(S(=O)(=O)NC(=O)NC3CCCCC3)cc2)cn1 [glipizide]
clinical outcome (patient; iv): preservation of left ventricular function

N[C@@H](CCC(=O)N[C@@H](CS)C(=O)NCC(=O)O)C(=O)O [glutathione]
restoration of catalytic activity lost upon removal of DTT by dialysis [2]: not

O=CC[N+](=O)[O-] [nitroacetaldehyde]
clinical outcome (patient; 0.1 mg/kg): relief of dyspnea

[Cl-].[O-][N+](=S)CCCC[P+](c1ccccc1)(c1ccccc1)c1ccccc1 [thionitrobutyltriphenylphosphonium chloride]
clinical outcome (patient; iv, 15 mg/kg): relief of symptoms and enhanced sensitivity to nitroglycerin

acetaldehyde
increase of GTN EC50 by inhibitor/competitive substrate [4]: 4.4 fold | 1,2-GDN generation in the aorta rings, % of control activity [5, 9]: 52.5% | effect on increase in cGMP produced by GTN [6]: completely blocked | clinical outcome (patient; iv): normalizing blood pressure

nitric oxide [NO solutions]
effect of preincubation with the mtALDH inhibitors on relaxation induced by this vasodilator [4]: did not attenuate relaxation
